Results published in patent US20170354726A1, “CANCER PEPTIDE VACCINE” (Green Peptide Co., Ltd., priority 2010, published 2017).
Ends that are not written are not given here.

Assays:
Format in all cases: in vivo, human
[1] = tested on: antibody to a peptide in the peripheral blood of glioblastoma patients; assay: Antibody to peptide in plasma (FIU, Luminex) of glioblastoma patients; settings: brain tumor, patients given this peptide
Description: (§1) An antibody to a peptide in the peripheral blood of patient was measured using a multiplex technology provided by Luminex Corporation by a method as described in Japanese Patent No. 3960614 (incorporated herein by reference) using each of the powdered peptides of SEQ ID NOS: 1 to 14. More specifically, a carrier was prepared in which each peptide was immobilized on the surface of micro beads (Luminex Corporation) after dissolving the powdered peptide in DMSO. Subsequently, plasma (heparin blood) obtained by blood collection from the patient was mixed with the immobilized carrier to react the antibody contained in the plasma with the peptide immobilized on the carrier. Then, the immobilized carrier was recovered after reaction; the antibody in the peripheral blood of the patient, bound to the peptide on the support was fluorescently labeled using a biotinylated anti-human antibody (Vector Corporation) and an avidinylated fluorescent dye (Streptavidin-PE, Invitrogen Corporation); and the fluorescence intensity (FIU) thereof was measured.
(§2) Similarly, for glioblastoma patients, the average of IFN-γ values or FIU was calculated in the 1 mg administration group (level I) and the 3 mg administration group (level II) to analyze the relationship between the dose and the immunological response.
(§3) Similarly, for glioblastoma patients, the averages of IFN-γ values and FIU obtained from the plasma or PBMC obtained at the end of each course from before administration to the 2nd course were calculated in the 1 mg administration group (level I) and the group of administration of 3 mg or more (level II) to analyze the relationship between the number of times of administration and the immunological response. The “Number of times of administration” in the table and the figure is the total number of times of administration at the end of each course, and the number of times of administration per course is 6.

[2] = tested on: antibody to a peptide in the peripheral blood of HRPC patients; assay: Antibody to peptide in plasma (FIU, Luminex) of HRPC patients; settings: prostate cancer, patients given this peptide
Description: as §1, with “More” for “An antibody to a peptide in the peripheral blood of patient was measured using a multiplex technology provided by Luminex Corporation by a method as described in Japanese Patent No. 3960614 (incorporated herein by reference) using each of the powdered peptides of SEQ ID NOS: 1 to 14. More”
(§4) For HRPC patients, the average of IFN-γ values or FIU was calculated in the 1 mg administration group (level I), the 3 mg administration group (level II), and the 5 mg administration group (level III) to analyze the relationship between the dose and the immunological response.
(§5) For HRPC patients, the averages of IFN-γ values and FIU obtained from the plasma or PBMC obtained at the end of each course from before administration to the 6th course were calculated in the 1 mg administration group and the group of administration of 3 mg or more to analyze the relationship between the number of times of administration and the immunological response. The “Number of times of administration” in the table and the figure is the total number of times of administration at the end of each course, and the number of times of administration per course is 6.

[3] = tested on: CTL in PBMC of HRPC patients, HLA-A24 positive target cells presenting the administered peptide; assay: Measurement of CTL activity (IFN-γ) in PBMC of HRPC patients; settings: for reactivity of CTL (and antibody) to the peptide, in words: HRPC patients; for IFN post average/average no. of times of administration / CTL (IFN) Post Average: prostate cancer; for CTL (IFN) Post Average: patients given this peptide
Description: (§6) PBMC was separated from the peripheral blood obtained by blood collection at the start of administration and at the end of each course for lyophilization, and CTL activity was measured using all PBMC by a known method (Hida N, Maeda Y, Katagiri K, Takasu H, Harada M, Itoh K., A simple culture protocol to detect peptide-specific cytotoxic T lymphocyte precursors in circulation. Cancer Immunol Immunotherapy 2002; 51: 219-228 (incorporated herein by reference)) after the end of administration. First, PBMC was cultured in the presence of each administered peptide for 2 weeks, and the PBMC was co-cultured with HLA-A24 positive target cells presenting the administered peptide via HLA molecules. Then, CTL activity was measured by measuring IFN-γ secreted into the culture supernatant by the reaction of CTL in PBMC with the target cells. The co-culture was performed under 4 independent conditions for each peptide; 4 values were obtained for each peptide for each PBMC obtained by each blood collection; and the total of the 4 values was used as a value (pg/mL) of IFN-γ for analysis to be described later.
as §4, §5
Since the initial peptide reselection was performed at the end of the 1st course, the averages of measurements after the reselection (values measured at the end of the 2nd course and later) are shown in the table and the figure. The “Number of times of administration” in the table and the figure is the total number of times of administration at the end of each course, and the number of times of administration per course is 6.

[4] = tested on: CTL in PBMC of glioblastoma patients, HLA-A24 positive target cells presenting the administered peptide; assay: Measurement of CTL activity (IFN-γ) in PBMC of glioblastoma patients; settings: brain tumor; for CTL (IFN) Post Average: patients given this peptide
Description: as §6, §2, §3

Sequence: AYDFLYNYL [GP-113]
- Ab Post Average (FIU after peptide administration) [1]: 67 FIU
- Ab Post Average (FIU after peptide administration) [2]: 207 FIU
- reactivity of CTL (and antibody) to the peptide, in words [3]: low values of CTL activation
- IFN post average/average no. of times of administration [3]: 67
- CTL (IFN) Post Average [3]: 600 pg/mL
- IFN post average/average no. of times of administration [4]: 357
- CTL (IFN) Post Average [4]: 5,139 pg/mL

Sequence: DYSARWNEI [GP-112]
- Ab Post Average (FIU after peptide administration) [1]: 1,338 FIU
- Ab Post Average (FIU after peptide administration) [2]: 53 FIU
- reactivity of CTL (and antibody) to the peptide, in words [3]: low values of CTL activation
- IFN post average/average no. of times of administration [3]: 76
- CTL (IFN) Post Average [3]: 459 pg/mL
- IFN post average/average no. of times of administration [4]: 92
- CTL (IFN) Post Average [4]: 1,308 pg/mL

Sequence: RYLTQETNKV [GP-111]
- Ab Post Average (FIU after peptide administration) [1]: 241 FIU
- Ab Post Average (FIU after peptide administration) [2]: 11,125 FIU
- IFN post average/average no. of times of administration [3]: 207
- CTL (IFN) Post Average [3]: 5,576 pg/mL
- IFN post average/average no. of times of administration [4]: 400
- CTL (IFN) Post Average [4]: 3,001 pg/mL

Sequence: LYCESVHNF [GP-108]
- Ab Post Average (FIU after peptide administration) [2]: 19,039 FIU
- IFN post average/average no. of times of administration [3]: 72
- CTL (IFN) Post Average [3]: 2,209 pg/mL

Sequence: HYTNASDGL [GP-103]
- Ab Post Average (FIU after peptide administration) [2]: 22 FIU
- reactivity of CTL (and antibody) to the peptide, in words [3]: did not increase the reactivity of antibody and CTL
- IFN post average/average no. of times of administration [3]: 8
- CTL (IFN) Post Average [3]: 100 pg/mL

Sequence: DYVREHKDNI [GP-101]
- Ab Post Average (FIU after peptide administration) [2]: 16,491 FIU
- reactivity of CTL (and antibody) to the peptide, in words [3]: lower in the CTL reactivity than other peptides
- IFN post average/average no. of times of administration [3]: 7
- CTL (IFN) Post Average [3]: 129 pg/mL

Sequence: TYSVSFDSL [GP-110]
- Ab Post Average (FIU after peptide administration) [2]: 310 FIU
- reactivity of CTL (and antibody) to the peptide, in words [3]: increased the CTL value
- IFN post average/average no. of times of administration [3]: 365
- CTL (IFN) Post Average [3]: 2,190 pg/mL

Sequence: VYDYNCHVDL [GP-114]
- Ab Post Average (FIU after peptide administration) [1]: 297 FIU
- Ab Post Average (FIU after peptide administration) [2]: 10,557 FIU
- IFN post average/average no. of times of administration [3]: 547
- CTL (IFN) Post Average [3]: 4,592 pg/mL
- IFN post average/average no. of times of administration [4]: 82
- CTL (IFN) Post Average [4]: 821 pg/mL

Sequence: LYAWEPSFL [GP-106]
- Ab Post Average (FIU after peptide administration) [1]: 297 FIU
- Ab Post Average (FIU after peptide administration) [2]: 20,080 FIU
- IFN post average/average no. of times of administration [3]: 841
- CTL (IFN) Post Average [3]: 22,699 pg/mL
- IFN post average/average no. of times of administration [4]: 174
- CTL (IFN) Post Average [4]: 3,134 pg/mL

Sequence: NYSVRYRPGL [GP-107]
- Ab Post Average (FIU after peptide administration) [1]: 302 FIU
- Ab Post Average (FIU after peptide administration) [2]: 2,888 FIU
- reactivity of CTL (and antibody) to the peptide, in words [3]: lowly increased the CTL activity
- IFN post average/average no. of times of administration [3]: 27
- CTL (IFN) Post Average [3]: 370 pg/mL
- IFN post average/average no. of times of administration [4]: 8
- CTL (IFN) Post Average [4]: 151 pg/mL

Sequence: HYRKWIKDTI [GP-109]
- Ab Post Average (FIU after peptide administration) [2]: 11,672 FIU
- reactivity of CTL (and antibody) to the peptide, in words [3]: lowly increased the CTL activity
- IFN post average/average no. of times of administration [3]: 22
- CTL (IFN) Post Average [3]: 494 pg/mL

Sequence: DYLRSVLEDF [GP-105]
- Ab Post Average (FIU after peptide administration) [1]: 3,969 FIU
- Ab Post Average (FIU after peptide administration) [2]: 13,096 FIU
- IFN post average/average no. of times of administration [3]: 229
- CTL (IFN) Post Average [3]: 5,274 pg/mL
- IFN post average/average no. of times of administration [4]: 180
- CTL (IFN) Post Average [4]: 2,706 pg/mL

Sequence: TFDYLRSVL [GP-104]
- Ab Post Average (FIU after peptide administration) [1]: 920 FIU
- Ab Post Average (FIU after peptide administration) [2]: 11,538 FIU
- IFN post average/average no. of times of administration [3]: 144
- CTL (IFN) Post Average [3]: 3,629 pg/mL
- IFN post average/average no. of times of administration [4]: 187
- CTL (IFN) Post Average [4]: 2,986 pg/mL
